# Laboratory results: US20240180932A1, “S[…] COMPOUNDS IN THE MANAGEMENT OF AGEING AND RELATED DISORDERS” (SOCIETE DES PRODUITS NESTLE S.A., priority 2021, published 2024)
# Key:
# [1] = system: AMPKα2 knockout C. elegans (aak-2); experiment: Lifespan of AMPKα2 knockout C. elegans (aak-2); type: in vivo; design: Mean lifespan / Maximum lifespan: unit not given here
# Method: FIG. 3. […] 60-70 synchronized day 1 adult aak-2 animals were loaded in each Infinity chip and treated with 0.5 μM or 10 μM of Compound 1, throughout life, and with fresh doses of OP50 bacteria (20 mg/ml) at 20 C, each day. Note that the control is the no drug treated population (0.2% v/v DMSO liquid NGM). […] Each day, at the same time, death scores were determined and three independent trials were conducted, with two technical replicates per trial.
# We tested the ability of Compound 1 to extend lifespan in C elegans which have the AMP-activated protein kinase (AMPK) α2 subunit isoform deletion. This mutant strain (aak-2) is commonly used in lifespan studies to look at the dependence on activation of AMPK for mediating the lifespan and other effects of various compounds.
# Zebrafish larvae = experiment: Autophagy induction in Zebrafish larvae (LC3-ZsGreen reporter, LC3 punctae); type: in vivo; conditions: 0.25, 0.5, 1 and 2.5 μM
# Method: FIG. 7. Compound 1 increases autophagy in Zebrafish larvae. An autophagy reporter zebrafish line was generated by stable expression of the LC3 protein fused to ZsGreen under the control of a skeletal muscle specific promoter. Larvae from outcrossed transgenic zebrafish were raised at 28 C under standard laboratory conditions and have been treated at 48 h post-fertilization in 96 well plates with varying concentrations of Compound 1 at different concentrations as indicated in the figure. After 16 hours of treatment larvae were anesthetized with 0.016% tricaine and imaged with ImageXpress confocal system at 20× magnification (Molecular Devices). Z stack images were captured for each larva and maximal projection images were produced. Ammonium chloride (final concentration 100 mM) was added for an additional 4 h to block lysosomal degradation. Images were acquired again as before. In order to quantify autophagic flux, number of LC3 punctae have been calculated in presence and in absence of ammonium chloride with MetaXpress software (Molecular Devices) and normalized by zebrafish area.
# C. elegans = experiment: Mobility of C. elegans (highly active, moderately active, inactive cohorts); type: in vivo; conditions: for Effect on percentage of highly active animals: Days 5, 8, 12, 15
# Method: FIG. 4. […] To measure locomotory health related parameters the same video recordings that were captured for live/dead scoring were analyzed. The movements of the individual animals were tracked and animals were grouped into cohorts of different activity. This was achieved by determining how much of the animal body moved in a boundary box that encompasses it, in a duration of 30 seconds.
# FIG. 5. […] The movements of the individual animals were tracked and animals were grouped into cohorts of different activity. This was achieved by determining how much of the animal body moved in a boundary box that encompasses it, in a duration of 30 seconds.
# FIG. 6. […] The movements of the individual animals were tracked and animals were grouped into cohorts of different activity. This was achieved by determining how much of the animal body moved in a boundary box that encompasses it, in a duration of 30 seconds.
# It is possible to measure the mobility of C. elegans and monitor this throughout the lifespan of the worms. As with many species, C. elegans display an age-related decline in mobility. […] Therefore, we tested whether Compound 1 could improve the mobility of C. elegans throughout their lifespan. To measure locomotory health related parameters the same video recordings that were captured for live/dead scoring were analyzed using the Infinity Code. The movements of the individual animals were tracked and animals were grouped into cohorts of different activity. The cohort analysis involved determining how much of the animal body moved in the boundary box that encompasses it, in a duration of 30 seconds.
# WT C. elegans = experiment: Thermotolerance of C. elegans after a heat-shock of 37 C for 4 hours (survival, microfluidic Infinity System); type: in vivo; conditions: 48 hrs treatment
# Method: FIG. 1. Compound 1 improves the thermotolerance of C. elegans, after a 37 C heat-shock. Day 1 adults were treated with 4 different concentrations of Compound 1 for 48 hrs at 20 C. Control is the no-drug-treated population. All compound solutions were made in NGM with 0.2% v/v DMSO, and the bacterial food source (20 mg/mL E. coli OP50). After 48 hrs of Compound 1 treatment, animals were exposed to 37 C for 4 hours and allowed to recover for 15 mins following which death scores were determined using the microfluidic Infinity System. One-way ANOVA test was used to compare the response from different doses. Multiple comparison test was conducted for pairwise comparison to identify the dosages which provide thermotolerance benefit.
# It has been reported that exposing C. elegans to high temperatures increases the molecular stress and reduces animal lifespan. […] Importantly, this has been used to screen and evaluate the effectiveness of anti-ageing compounds. We monitored the survival of C. elegans after a thermal stress to determine whether Compound 1 could improve the ageing of these animals and at what concentrations this may occur. […] To achieve this, worms were maintained at their normal temperature (20 C) and then treated for 48-hour incubation with Compound 1 starting on adult day 1, followed by 4-hour heat challenge at 37 C, followed by 15 mins recovery and then death was recorded.
# wild-type C. elegans = experiment: Lifespan of wild-type C. elegans (microfluidic Infinity System); type: in vivo; design: Mean lifespan / Maximum lifespan: unit not given here
# Method: FIG. 2. 10 μM Compound 1 extends the mean and maximum lifespan of C. elegans. 60-70 synchronized day 1 adult animals were loaded in each Infinity chip and treated with 0.5 μM or 10 μM of Compound 1, throughout life, and with fresh doses of OP50 bacteria (20 mg/ml) at 20 C, each day. Note that the control is the no drug treated population (0.2% v/v DMSO liquid NGM). […] Each day, at the same time, death scores were determined and three independent trials were conducted, with two technical replicates per trial.
# To determine whether Compound 1 can extend lifespan, C. elegans were treated with 0.5 μM or 10 μM Compound 1 from day 1 of adulthood. The microfluidic Infinity System was used to assess the lifespan of Compound 1-treated and non-treated control worms. 60-70 synchronized day 1 adult animals were loaded in each Infinity chip and treated with 0.5 μM or 10 μM of Compound 1, lifelong, with daily fresh doses of 20 mg/mL of OP50 bacteria at 20 C. Control is the no-drug-treated population, maintained in 0.2% v/v DMSO liquid NGM. […] Each day, at the same time death scores were determined using the Infinity Code. Three independent trials with two technical replicates per trial were conducted.
# [2] = Solubility in water-based solutions; type: physicochemical
# [3] = aak-2, 0.5 μM, Pooled Trials 1 to 3
# [4] = aak-2, 10 μM, Pooled Trials 1 to 3
smiles,measurement,setting,value
"C=C(C)[C@@H]1CCC(C)=C[C@H]1c1c(O)cc(CCCCC)c(C(=O)O)c1O [Compound 1, Cannabidiolic acid]",ability to extend lifespan in aak-2 worms,"[1]; aak-2, 0.5 μM or 10 μM",completely lost
same,% lifespan extension,[1]; [3],−1.2%
same,Maximum lifespan,[1]; [3],26
same,Mean lifespan,[1]; [3],15.9 ± 4.2
same,% lifespan extension,"[1]; aak-2, 0.5 μM, Trial 1",0%
same,Maximum lifespan,"[1]; aak-2, 0.5 μM, Trial 1",25
same,Mean lifespan,"[1]; aak-2, 0.5 μM, Trial 1",16.0 ± 4.2
same,% lifespan extension,"[1]; aak-2, 0.5 μM, Trial 2",−4.7%
same,Maximum lifespan,"[1]; aak-2, 0.5 μM, Trial 2",26
same,Mean lifespan,"[1]; aak-2, 0.5 μM, Trial 2",16.1 ± 4.0
same,% lifespan extension,"[1]; aak-2, 0.5 μM, Trial 3",−3.7%
same,Maximum lifespan,"[1]; aak-2, 0.5 μM, Trial 3",25
same,Mean lifespan,"[1]; aak-2, 0.5 μM, Trial 3",15.6 ± 4.4
same,% lifespan extension,[1]; [4],0%
same,Maximum lifespan,[1]; [4],26
same,Mean lifespan,[1]; [4],16.1 ± 4.2
same,% lifespan extension,"[1]; aak-2, 10 μM, Trial 1",−7.5%
same,Maximum lifespan,"[1]; aak-2, 10 μM, Trial 1",23
same,Mean lifespan,"[1]; aak-2, 10 μM, Trial 1",14.9 ± 3.8
same,% lifespan extension,"[1]; aak-2, 10 μM, Trial 2",−4.1%
same,Maximum lifespan,"[1]; aak-2, 10 μM, Trial 2",26
same,Mean lifespan,"[1]; aak-2, 10 μM, Trial 2",16.2 ± 4.7
same,% lifespan extension,"[1]; aak-2, 10 μM, Trial 3",3.8%
same,Maximum lifespan,"[1]; aak-2, 10 μM, Trial 3",24
same,Mean lifespan,"[1]; aak-2, 10 μM, Trial 3",16.8 ± 3.5
same,Autophagy (LC3),"Zebrafish larvae; 16 hours, without NH4Cl",dose-dependent increase in autophagy
same,Autophagy (LC3),Zebrafish larvae; in the presence of NH4Cl,dose-dependent increase in autophagy
same,Effect on percentage of highly active animals,C. elegans; 0.5 μM,increases the percentage of highly active animals at Day 8 only
same,Effect on moderately active worms,"C. elegans; 0.5 μM, days 14 to 20",increases the number of moderately active worms
same,Effect on proportion of inactive worms,"C. elegans; 0.5 μM, days 14 to 20",decreases the proportion of inactive worms
same,Effect on percentage of highly active animals,C. elegans; 10 μM,"increases the percentage of highly active animals at Days 8, 12 and 15"
same,Effect on proportion of highly active worms,"C. elegans; 10 μM, days 14 and 20",increases the proportion of highly active worms
same,Effect on proportion of inactive worms,"C. elegans; 10 μM, days 14 and 20",decreases the proportion of inactive worms
same,Mean % of Highly Active animals,"C. elegans; Day 5, 0.5 μM",83.7%
same,Mean % of Highly Active animals,"C. elegans; Day 5, 10 μM",89.3%
same,Mean % of Highly Active animals,"C. elegans; Day 8, 0.5 μM",75.7%
same,Mean % of Highly Active animals,"C. elegans; Day 8, 10 μM",78.1%
same,Mean % of Highly Active animals,"C. elegans; Day 12, 0.5 μM",45.2%
same,Mean % of Highly Active animals,"C. elegans; Day 12, 10 μM",49.7%
same,Mean % of Highly Active animals,"C. elegans; Day 15, 0.5 μM",18.3%
same,Mean % of Highly Active animals,"C. elegans; Day 15, 10 μM",23.7%
same,Survival after heat shock,WT C. elegans; 0.5 μM,small improvement in survival
same,Survival after heat shock,WT C. elegans; concentrations above 0.5 μM,almost a complete prevention of C. elegans death
same,% lifespan extension,"wild-type C. elegans; 0.5 μM, Pooled Trials 1 to 3",1.3%
same,Maximum lifespan,"wild-type C. elegans; 0.5 μM, Pooled Trials 1 to 3",26
same,Mean lifespan,"wild-type C. elegans; 0.5 μM, Pooled Trials 1 to 3",15.3 ± 5.4
same,% lifespan extension,"wild-type C. elegans; 0.5 μM, Trial 1",4.4%
same,Maximum lifespan,"wild-type C. elegans; 0.5 μM, Trial 1",25
same,Mean lifespan,"wild-type C. elegans; 0.5 μM, Trial 1",16.6 ± 5.8
same,% lifespan extension,"wild-type C. elegans; 0.5 μM, Trial 2",0%
same,Maximum lifespan,"wild-type C. elegans; 0.5 μM, Trial 2",26
same,Mean lifespan,"wild-type C. elegans; 0.5 μM, Trial 2",15.2 ± 5.7
same,% lifespan extension,"wild-type C. elegans; 0.5 μM, Trial 3",0%
same,Maximum lifespan,"wild-type C. elegans; 0.5 μM, Trial 3",26
same,Mean lifespan,"wild-type C. elegans; 0.5 μM, Trial 3",15.0 ± 5.4
same,Effect on mean and maximum lifespan,wild-type C. elegans; 10 μM,significantly extended mean and maximum lifespan
same,maximum lifespan extension,wild-type C. elegans; 10 μM,2 days
same,mean lifespan extension,wild-type C. elegans; 10 μM,around 11%
same,% lifespan extension,"wild-type C. elegans; 10 μM, Pooled Trials 1 to 3",11.3%
same,Maximum lifespan,"wild-type C. elegans; 10 μM, Pooled Trials 1 to 3",27
same,Mean lifespan,"wild-type C. elegans; 10 μM, Pooled Trials 1 to 3",16.8 ± 5.6
same,% lifespan extension,"wild-type C. elegans; 10 μM, Trial 1",10%
same,Maximum lifespan,"wild-type C. elegans; 10 μM, Trial 1",27
same,Mean lifespan,"wild-type C. elegans; 10 μM, Trial 1",17.5 ± 5.8
same,% lifespan extension,"wild-type C. elegans; 10 μM, Trial 2",11.8%
same,Maximum lifespan,"wild-type C. elegans; 10 μM, Trial 2",27
same,Mean lifespan,"wild-type C. elegans; 10 μM, Trial 2",17.1 ± 5.9
same,% lifespan extension,"wild-type C. elegans; 10 μM, Trial 3",25%
same,Maximum lifespan,"wild-type C. elegans; 10 μM, Trial 3",26
same,Mean lifespan,"wild-type C. elegans; 10 μM, Trial 3",18.8 ± 6.0
same,Solubility,[2],low solubility in water-based solutions
